Reference: patent US20020032177A1, “Use of D-chiro-inositol in the treatment of conditions associated with hypothalamic gene expression” (Insmed Pharmaceuticals, Inc., priority 2000, published 2002)
Read-outs that look alike come from different tables or passages of the source.

Key:
[1] = Adiposity of mice after DCI administration; assay type: in vivo; settings: fed and 48-hour fasted
From the text: (§1) FIG. 3 and FIG. 4 depict, respectively, the effect of DCI administration on leptin mRNA and plasma leptin in mice. […] Thus, DCI enhances the rate of translation and secretion of leptin.

plasma leptin = assay: Plasma leptin in mice after DCI administration; assay type: in vivo; settings: FIG. 4
From the text: as §1

NPY mRNA = NPY mRNA levels in diet-induced obese mice; assay type: in vivo
From the text: (§2) A high calorie diet (compositionally equivalent to the typical American diet) will induce obesity and diabetes in some mouse strains (e.g., C57BL/6J) but not others (e.g., A/J). […] These changes in hypothalamic gene expression are ultimately regulated by insulin, although part of the effect may be mediated indirectly by the effect of insulin on leptin synthesis in fat, which then feeds back to hypothalamus to enhance the direct effect of insulin on the hypothalamus. By enhancing the rate of translation and secretion of leptin this hypothalamic response is blocked or attenuated.
(§3) FIG. 1 and FIG. 2 depicts the results of studies in the diet induced mice on NPY and AGRP mRNA levels. DCI leads to lower NPY and AGRP mRNA.

AGRP mRNA = AGRP mRNA levels in diet-induced obese mice; assay type: in vivo; settings: FIG. 2
From the text: as §2, §3

leptin mRNA [2] = assay: Leptin mRNA in mice after DCI administration; assay type: in vivo; settings: FIG. 3
From the text: as §1

[3] = women with PCOS; cited from earlier work
[4] = obese rodents and humans; cited from earlier work
[5] = ob/ob mice, daily injections; cited from earlier work
[6] = lean (wild-type) mice, daily injections; cited from earlier work
leptin mRNA [7] = settings: elevation of leptin by injection; cited from earlier work

## OC1C(O)C(O)C(O)C(O)C1O [DCI, D-chiro-inositol]
[1]
  adiposity: without increasing adiposity
Plasma leptin; 48-hour fasted mice
  increase of plasma leptin: over 5 fold
Plasma leptin; fed mice
  increase of plasma leptin: over 2 fold
NPY mRNA; diet induced mice, FIG. 1
  NPY mRNA: lower
NPY mRNA; fasted state, diet-induced obese mice
  effect of fasting on NPY and AGRP mRNA: blocks or attenuates the effect of fasting
AGRP mRNA
  AGRP mRNA: lower
Leptin mRNA [2]
  leptin mRNA: decrease

## CN(C)C(=N)N=C(N)N [Metformin]
[3]
  fertility: partially restores
[4]
  food intake: decreases

B1: leptin: product of the obese (ob) gene, secreted by adipose cells; given as daily injections of recombinant protein (protein, UniProt P41160 22-167, looked up)
Leptin: VPIQKVQDDTKTLIKTIVTRINDISHTQSVSAKQRVTGLDFIPGLHPILSLSKMDQTLAVYQQVLTSLPSQNVLQIANDLENLRDLLHLLAFSKSCSLPQTSGLQKPESLDGVLEASLYSTEVVALSRLQGSLQDILQQLDVSPEC
[5]
  body weight and fat: reduction
  food intake: markedly inhibited
[6]
  food intake and body weight: modest decreases
Leptin mRNA [7]
  leptin mRNA: pronounced decreases
